Source: patent US5885993A, “Remedy for pancreatitis” (Nippon Shinyaku Company, Limited, priority 1995, dated 1999)

Tests used:
[1] = test system: cerulein-induced acute pancreatitis; conditions: Proceedings of the 36th Congress of The Japanese Society of Gastroenterology, p.266; cited from earlier work
Cn+St pancreatitis = test: Antipancreatitis activity: severity of pancreatitis and wet weight of pancreas in Cn+St pancreatitis (cerulein plus water immersion stress); assay type: in vivo, SD rats (female, 12-week-old); conditions: for Wet weight of pancreas / Severity of pancreatitis: oral gavage 18 and 2 hours before first Cn dosing, mean ± S.E.; for Severity of pancreatitis: score
Source text: The antipancreatitis action of the compound of the invention was confirmed in a test using rats as described hereinafter. The test protocol used is the most popular of all of the test protocols available for the evaluation of therapeutic drugs for pancreatitis in animals. A high correlation has been reported to hold between the antipancreatitis effect found by this test and the clinical effect in man [Yamaguchi et al.: Association of stresses in the onset of pancreatitis, Shoukakika, 18(2), 186-196, 1994). Female 12-week-old SD rats were used in groups of 10 individuals. After 40 μg/kg of cerulein (Cn) was administered intraperitoneally, the animals were placed in stress cages and immersed down to the xiphoid in a constant-temperature bath at 23° C. One hour later, 40 μg/kg of Cn was administered i.p. again and the stress loading was continued. After 5 hours of stress loading, the animals were sacrificed and laparotomized and the severity of pancreatitis was scored in accordance with the evaluation criteria proposed by Yamaguchi et al. (Gastroenterology 98: 1682-1688, 1990). In addition, the pancreas was excised and its wet weight was determined. As the test compounds, compounds 1, 2, 3, and 4 were administered by oral gavage 18 and 2 hours before the first Cn dosing. As a control compound, irsogladine maleate was used. Statistical significance was tested by Wilcoxon rank sum test for the severity and by Dunnett test for the wet weight.

male mice (BALB/c) = test: Acute toxicity; assay type: in vivo; conditions: monitored for 1 week
Protocol: Six-week-old male mice (BALB/c) fasted in advance was orally dosed with 1 g/kg or 500 mg/kg of the test compound and the time course of mortality was monitored for 1 week. The test compound was suspended in 0.5% aqueous methylcellulose solution and administered in the dose of 500 or 1,000 mg/20 ml/kg. […] The toxicity of the compound of the invention is, thus, extremely low.

[2] = Effect on body weight gain; assay type: in vivo, SD rats (male, 6-week-old); conditions: 1000 mg/kg orally daily for 2 consecutive weeks
Protocol: Compound 1 was administered orally to 6-week-old male SD rats (in groups of 5) daily to investigate its effect on body weight gain.

Compound	efficacy in Cn-induced acute pancreatitis (in words) [1]	Wet weight of pancreas (Cn+St pancreatitis; 10 mg/kg)	Severity of pancreatitis (Cn+St pancreatitis; 10 mg/kg)	Wet weight of pancreas (Cn+St pancreatitis; 30 mg/kg)	Severity of pancreatitis (Cn+St pancreatitis; 30 mg/kg)	Wet weight of pancreas (Cn+St pancreatitis; 100 mg/kg)	Severity of pancreatitis (Cn+St pancreatitis; 100 mg/kg)	minimal effective dose (Cn+St pancreatitis; Rattus norvegicus, only at this dose (10, 30, 100 mg/kg tested), oral, read-out: dose showing a significant reducing effect on the severity of pancreatitis)	effect on wet weight (swelling) of pancreas relative to comparator, in words (Cn+St pancreatitis; compound of the invention versus control compound irsogladine maleate)	inhibitory activity in Cn+St pancreatitis (in words) (Cn+St pancreatitis; rat model, cerulein plus water immersion stress loading)	Wet weight of pancreas (Cn+St pancreatitis; 3 mg/kg)	Severity of pancreatitis (Cn+St pancreatitis; 3 mg/kg)	mortality (male mice (BALB/c); 1 g/kg oral)	effect on body weight gain [2]	Wet weight of pancreas (Cn+St pancreatitis; 1 mg/kg)	Severity of pancreatitis (Cn+St pancreatitis; 1 mg/kg)	mortality (male mice (BALB/c); 500 mg/kg oral)
Nc1nc(N)nc(-c2cc(Cl)ccc2Cl)n1.O=C(O)/C=C\C(=O)O [irsogladine maleate, 2,4-diamino-6-(2,5-dichlorophenyl)-1,3,5-triazine maleate, reference compound]	proved efficacious	10.09 ± 0.51 g/kg	2.2 ± 0.33	8.52 ± 0.60 g/kg	1.5 ± 0.27	7.14 ± 0.58 g/kg	0.4 ± 0.22	100 mg/kg	almost equivalent to the compound of the invention in the effect on wet weight of pancreas	only moderate activity	–	–	–	–	–	–	–
Nc1nc(-c2cc(Cl)ccc2Cl)nc(N2C[C@H](O)C[C@H]2CO)n1 [Compound 3, 2-Amino-4-(2,5-dichlorophenyl)-6-[(2S,4R)-2-hydroxymethyl-4-hydroxy-1-pyrrolidinyl]-1,3,5-triazine]	–	6.67 ± 0.37 g/kg	0.7 ± 0.08	5.96 ± 0.70 g/kg	0.6 ± 0.08	–	–	–	–	–	7.58 ± 0.36 g/kg	1.4 ± 0.10	no death was encountered	–	–	–	–
Nc1nc(-c2cc(Cl)ccc2Cl)nc(N(CCO)CCO)n1 [Compound 1, 2-Amino-4-[N,N-bis(2-hydroxyethyl)amino]-6-(2,5-dichlorophenyl)-1,3,5-triazine]	–	9.33 ± 0.66 g/kg	1.4 ± 0.22	7.13 ± 0.57 g/kg	0.6 ± 0.22	5.65 ± 0.40 g/kg	0.3 ± 0.21	–	–	–	–	–	no death was encountered	did not affect the body weight gain of rats	–	–	–
Nc1nc(-c2cc(Cl)ccc2Cl)nc(N2CCOCC2)n1 [Compound 4, 2-Amino-4-(2,5-dichlorophenyl)-6-morpholino-1,3,5-triazine]	–	7.33 ± 0.23 g/kg	0.9 ± 0.28	6.18 ± 0.53 g/kg	0.5 ± 0.22	7.49 ± 0.47 g/kg	0.5 ± 0.17	–	–	–	–	–	no death was encountered	–	–	–	–
Cl.Nc1nc(-c2cc(Cl)ccc2Cl)nc(N2CCC[C@H]2CO)n1 [Compound 2, (S)-2-amino-4-(2,5-dichlorophenyl)-6-(2-hydroxymethyl-1-pyrrolidinyl)-1,3,5-triazine hydrochloride]	–	7.31 ± 0.64 g/kg	0.4 ± 0.16	4.35 ± 0.32 g/kg	0.1 ± 0.03	–	–	–	–	–	6.83 ± 0.48 g/kg	0.8 ± 0.29	–	–	6.86 ± 0.41 g/kg	1.3 ± 0.30	no death was encountered
